The text below walks through data of US20120258967A1, “PI3 KINASE INHIBITORS AND USES THEREOF” (AVILA THERAPEUTICS, INC., priority 2011, published 2012).

T2 sequence (P42336 whole entry): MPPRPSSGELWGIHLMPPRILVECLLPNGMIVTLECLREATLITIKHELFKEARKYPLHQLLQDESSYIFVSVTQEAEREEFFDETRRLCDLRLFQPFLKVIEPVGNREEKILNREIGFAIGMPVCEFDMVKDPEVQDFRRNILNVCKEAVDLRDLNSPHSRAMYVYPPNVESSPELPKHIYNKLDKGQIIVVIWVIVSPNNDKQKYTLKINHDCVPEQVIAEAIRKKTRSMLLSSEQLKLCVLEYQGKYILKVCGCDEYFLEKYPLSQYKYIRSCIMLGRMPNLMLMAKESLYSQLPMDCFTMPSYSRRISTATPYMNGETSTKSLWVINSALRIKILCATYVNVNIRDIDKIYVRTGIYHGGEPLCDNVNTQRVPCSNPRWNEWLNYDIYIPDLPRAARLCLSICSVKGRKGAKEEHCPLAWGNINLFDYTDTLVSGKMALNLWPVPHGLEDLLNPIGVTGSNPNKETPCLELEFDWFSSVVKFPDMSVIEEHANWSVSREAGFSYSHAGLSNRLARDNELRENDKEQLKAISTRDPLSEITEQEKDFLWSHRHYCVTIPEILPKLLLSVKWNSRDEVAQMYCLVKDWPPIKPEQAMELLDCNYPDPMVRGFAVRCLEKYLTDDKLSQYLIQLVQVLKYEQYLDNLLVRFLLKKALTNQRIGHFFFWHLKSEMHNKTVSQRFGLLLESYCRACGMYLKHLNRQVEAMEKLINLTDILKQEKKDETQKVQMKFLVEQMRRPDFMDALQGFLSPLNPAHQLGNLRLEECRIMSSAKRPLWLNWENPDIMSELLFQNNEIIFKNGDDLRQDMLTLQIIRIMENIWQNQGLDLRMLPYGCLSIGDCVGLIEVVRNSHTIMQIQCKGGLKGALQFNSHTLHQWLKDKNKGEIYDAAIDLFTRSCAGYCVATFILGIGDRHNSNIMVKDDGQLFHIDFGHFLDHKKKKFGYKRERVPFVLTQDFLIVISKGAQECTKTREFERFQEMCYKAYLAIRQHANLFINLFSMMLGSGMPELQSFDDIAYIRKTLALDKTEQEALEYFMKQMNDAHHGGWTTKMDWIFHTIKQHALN
T2 sequence (P27986 whole entry partner): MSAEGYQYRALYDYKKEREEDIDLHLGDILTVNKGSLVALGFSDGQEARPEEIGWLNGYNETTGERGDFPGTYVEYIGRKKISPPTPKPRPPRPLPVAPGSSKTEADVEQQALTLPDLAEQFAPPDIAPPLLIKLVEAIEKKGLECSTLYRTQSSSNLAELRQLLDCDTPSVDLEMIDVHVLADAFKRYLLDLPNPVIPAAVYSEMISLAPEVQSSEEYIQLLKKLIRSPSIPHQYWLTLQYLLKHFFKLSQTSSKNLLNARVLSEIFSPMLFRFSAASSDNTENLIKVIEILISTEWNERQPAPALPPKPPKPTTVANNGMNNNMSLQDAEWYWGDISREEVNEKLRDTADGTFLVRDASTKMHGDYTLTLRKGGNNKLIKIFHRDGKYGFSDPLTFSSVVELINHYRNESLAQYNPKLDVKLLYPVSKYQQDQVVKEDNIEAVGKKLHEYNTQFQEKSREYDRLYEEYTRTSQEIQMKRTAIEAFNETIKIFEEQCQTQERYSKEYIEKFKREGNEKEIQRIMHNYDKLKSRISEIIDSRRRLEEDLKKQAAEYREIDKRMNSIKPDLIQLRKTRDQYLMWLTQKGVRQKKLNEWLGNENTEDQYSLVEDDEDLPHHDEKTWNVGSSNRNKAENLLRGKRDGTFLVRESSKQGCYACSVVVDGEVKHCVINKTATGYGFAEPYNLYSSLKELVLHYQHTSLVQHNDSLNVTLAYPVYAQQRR

The target in the first test is T1, PI3Kα (p110α/p85α) (Homo sapiens, UniProt P42336).
T1 construct: purchased BPS Bioscience or Millipore
T1 sequence (P42336 whole entry): as the sequence (P42336 whole entry) above
T1 sequence (P27986 whole entry partner): as the sequence (P27986 whole entry partner) above
The experiment in a line: HTRF assay, potency against active PI3Kα. It is filed as biochemical. The note with it: [ATP]=50 μM, read-out: PI3Kα Inhibition. On the procedure:
Compounds of the present invention are assayed as inhibitors of PI3 kinases using the following general protocol.
Homogeneous Time Resolved Fluorescence (HTRF) Assay Protocol for Potency Assessment Against the Active Forms of PI3Kα, PI3Kβ, and PI3Kγ
The protocol below describes an end-point, competition-binding HTRF assay used to measure inherent potency of test compounds against active PI3Kα (p110α/p85α), PI3Kβ (p110β/p85α), and PI3Kγ (p120γ) enzymes. The mechanics of the assay platform are best described by the vendor (Millipore, Billerica, Mass.) on their website at the following URL: www.millipore.com/coa/tech1/74jt4z.
Briefly, Stop solution (Stop A, #33-007 and Stop B, #33-009; 3:1 ratio) and Detection Mix (from DMC, #33-015 with DMA, #33-011 and DMB, #33-013; 18:1:1 ratio) were prepared as recommended by the manufacturer about 2 hrs prior to use. Additionally, 1× reaction buffer (from 4× buffer stock #33-003), 1.4× stocks of PI3Kα, PI3Kβ, and PI3Kγ enzymes from BPS Bioscience (San Diego, Calif.) or Millipore (Billerica, Mass.) with di-C8-PIP2 lipid substrate (#33-005), and a 4×ATP solution (#A7699 Sigma/Aldrich; St. Louis, Mo.) were prepared in 1× reaction buffer. 15 μL of PI3K enzymes and lipid substrate mix were pre-incubated in a Corning (#3573) 384-well, black, non-treated microtiter plate (Corning, N.Y.) for 30 min at 25° C. with a 0.5 μL volume of 50% DMSO and serially diluted compounds prepared in 50% DMSO. Lipid kinase reactions were started with the addition of 5 μL of ATP solution, mixed for 15 sec on a rotary plate shaker and incubated for 30-60 minutes at 25° C. Next, reactions were stopped with a 5 μL addition of Stop solution immediately followed by a 5 μL volume of Detection Mix. Stopped reactions were equilibrated for 1 and 18 hrs at room temperature and read in a Synergy^4 plate reader from BioTek (Winooski, Vt.) at λex 330-80/λem 620-35 and λem 665-7.5. At the conclusion of each assay, the HTRF ratio from fluorescence emission values for each well was calculated and % Inhibition determined from averaged controls wells (+/−PI3K enzyme). % Inhibition values for each compound were then plotted against inhibitor concentration to estimate IC50 from log [Inhibitor]vs Response, Variable Slope model in GraphPad Prism from GraphPad Software (San Diego, Calif.).
[Reagent] used in optimized protocol:
(ATP KMapp for both enzymes was estimated to be 40-70 μM)
(TR-FRET usually uses a lanthanide donor and a delayed reading to cut background.)
With `CC(C)/C(=C\C(=O)Nc1ccc(CC(=O)N2CCN(c3cc(-c4cnc(N)nc4)nc(N4CCOCC4)c3)CC2)cc1)C(F)(F)F` [I-15], the IC50 fell in the range of 100 to 1000 nM.

On to `C/C(=C\C(=O)Nc1ccc(CC(=O)N2CC=C(c3cc(-c4cnc(N)nc4)nc(N4CCOCC4)c3)CC2)cc1)C(F)(F)F` [I-6], for which the IC50 was 100 to 1000 nM.

Take `C/C(=C\C(=O)Nc1ccc(CC(=O)N2CCN(c3cc(-c4cnc(N)nc4)nc(N4CCOCC4)c3)CC2)cc1)C(F)(F)F` [I-13]: the IC50 was 100 to 1000 nM.

Consider `CC(C)=CC(=O)CCC(=O)Nc1ccc(C#Cc2cc(-c3cnc(N)nc3)nc(N3CCOCC3)c2)cc1` [I-2, N-(4-((2-(2-aminopyrimidin-5-yl)-6-morpholinopyridin-4-yl)ethynyl)phenyl)-6-methyl-4-oxohept-5-enamide], for which the IC50 was in the range of 10 to 100 nM.

For the compound `C/C=C/C(=O)Nc1ccc(CC(=O)N2CC=C(c3cc(-c4cnc(N)nc4)nc(N4CCOCC4)c3)CC2)cc1` [I-3], the IC50 fell in the range of 100 to 1000 nM.

Turning to `Nc1ncc(-c2cc(C3=CCN(C(=O)Cc4ccc(NC(=O)/C=C(\c5ccccc5)C(F)(F)F)cc4)CC3)cc(N3CCOCC3)n2)cn1` [I-5], the IC50 lay within 10 to 100 nM.

In the case of `Nc1ncc(-c2cc(N3CCN(C(=O)Cc4ccc(NC(=O)/C=C(\c5ccccc5)C(F)(F)F)cc4)CC3)cc(N3CCOCC3)n2)cn1` [I-12], the IC50 is 10 to 100 nM.

As to `Nc1ncc(-c2cc(C3=CCN(C(=O)Cc4ccc(NC(=O)/C=C(\C5CC5)C(F)(F)F)cc4)CC3)cc(N3CCOCC3)n2)cn1` [I-4], the IC50 is 10 to 100 nM.

As to `CC(C)/C(=C/C(=O)Nc1ccc(CC(=O)N2CCN(c3cc(-c4cnc(N)nc4)nc(N4CCOCC4)c3)CC2)cc1)C(F)(F)F` [I-16], the IC50 is 10 to 100 nM.

For the compound `C=CC(=O)Nc1ccc2sc(N3CCN(c4cc(-c5cnc(N)nc5)nc(N5CCOCC5)c4)CC3)nc2c1` [I-17], the IC50 was in the range of 10 to 100 nM.

Take `CC(C)/C(=C\C(=O)Nc1ccc(CC(=O)N2CC=C(c3cc(-c4cnc(N)nc4)nc(N4CCOCC4)c3)CC2)cc1)C(F)(F)F` [I-8]: the IC50 lay within 100 to 1000 nM.

In the case of `CC(C)/C(=C/C(=O)Nc1ccc(CC(=O)N2CC=C(c3cc(-c4cnc(N)nc4)nc(N4CCOCC4)c3)CC2)cc1)C(F)(F)F` [I-9], the IC50 is 10 to 100 nM.

For `Nc1ncc(-c2cc(N3CCN(C(=O)Cc4ccc(NC(=O)/C=C(\C5CC5)C(F)(F)F)cc4)CC3)cc(N3CCOCC3)n2)cn1` [I-11], the IC50 is 10 to 100 nM.

Take `C/C(=C/C(=O)Nc1ccc(CC(=O)N2CC=C(c3cc(-c4cnc(N)nc4)nc(N4CCOCC4)c3)CC2)cc1)C(F)(F)F` [I-7]: the IC50 was in the range of 100 to 1000 nM.

With `C/C(=C/C(=O)Nc1ccc(CC(=O)N2CCN(c3cc(-c4cnc(N)nc4)nc(N4CCOCC4)c3)CC2)cc1)C(F)(F)F` [I-14], the IC50 fell in the range of 100 to 1000 nM.

For the compound `C/C=C/C(=O)Nc1ccc(CC(=O)N2CCN(c3cc(-c4cnc(N)nc4)nc(N4CCOCC4)c3)CC2)cc1` [I-10], the IC50 was in the range of 100 to 1000 nM.

In the case of `CC(C)=CC(=O)CCC(=O)N1CCN(c2ccc(-c3cc(-c4cnc(N)nc4)nc(N4CCOCC4)c3)cc2)CC1` [I-1, 1-(4-(4-(2-(2-aminopyrimidin-5-yl)-6-morpholinopyridin-4-yl)phenyl)piperazin-1-yl)-6-methylhept-5-ene-1,4-dione], the IC50 was in the range of 100 to 1000 nM.

The next test addresses T2, PI3Kα (Homo sapiens, UniProt P42336).
T2 construct: purchased Millipore 14-602
The experiment in a line: Mass spectrometry for PI3K (covalent modification of intact protein, MALDI).
Conditions: not given
It is filed as binding. On the procedure: Mass Spectrometry for PI3K
Intact PI3Kα (Millipore, 14-602) was incubated for 1 hr at a 10-fold excess of I-11 to protein. Aliquots (5 μl) of the samples were diluted with 15 μl of 0.2% TFA prior to micro C4 ZipTipping directly onto the MALDI target using Sinapinic acid as the desorption matrix (10 mg/mL in 0.1% TFA:Acetonitrile 50:50). […] Other compounds that modify PI3Kα >50% after 1 hr include I-1, I-2, I-12, I-17, and I-19.
Take `Nc1ncc(-c2cc(N3CCN(C(=O)Cc4ccc(NC(=O)/C=C(\C5CC5)C(F)(F)F)cc4)CC3)cc(N3CCOCC3)n2)cn1` [I-11]: the “covalent modification of PI3Kα by MS analysis (FIG. 1)” value is “confirming covalent modification”.

Still in this test, the particulars now being: intact PI3Kα incubated 1 hr, 10-fold excess of compound to protein.
As to `Nc1ncc(-c2cc(N3CCN(C(=O)Cc4ccc(NC(=O)/C=C(\C5CC5)C(F)(F)F)cc4)CC3)cc(N3CCOCC3)n2)cn1` [I-11], the “modification of PI3Kα” value was 87%.

The same test, now with this note: intact PI3Kα incubated 1 hr, 10-fold excess of compound, MALDI centroid mass.
`Nc1ncc(-c2cc(N3CCN(C(=O)Cc4ccc(NC(=O)/C=C(\C5CC5)C(F)(F)F)cc4)CC3)cc(N3CCOCC3)n2)cn1` [I-11]: the “mass shift of PI3K after incubation with compound” value was found to be 555 Da.
